For data set [1], the system named is intestinal fluid secretion. As to the kind of experiment: Closed mid-jejunal loop model of intestinal fluid secretion. The class given is in vivo, mouse. Conditions: 90 min. The procedure:
Mice (wildtype or CF) were given access to 5% dextrose water but not solid food for 24 h before experiments. Mice were anesthetized with isoflurane and body temperature was maintained during surgery at 36-38° C. using a heating pad. A small abdominal incision was made to expose the small intestine, and closed mid-jejunal loops (length 2-3 cm) were isolated by sutures. Loops were injected with 100 μL vehicle alone or 100 μg CFTRact-J027 in vehicle. The abdominal incision was closed with sutures, and mice were allowed to recover from anesthesia. Intestinal loops were removed at 90 min and loop length and weight were measured to quantify fluid secretion. Intestinal absorption was measured in CF mice (to prevent secretion) as described above, except that the loops were removed at 0 or 30 min. Absorption was calculated as 1−(loop weight at 0 min−loop weight at 30 min)/loop weight at 0 min.
In vivo intestinal secretion and absorption. Mice (wildtype or CF) were given access to 5% dextrose water but not solid food for 24 h before experiments. […] Intestinal loops were removed at 90 min and loop length and weight were measured to quantify fluid secretion. Intestinal absorption was measured in CF mice (to prevent secretion) as described above, except that the loops were removed at 0 or 30 min. Absorption was calculated as 1−(loop weight at 0 min−loop weight at 30 min)/loop weight at 0 min. […]

Data set [2] can be described thus: Ocular toxicity after chronic topical dosing (slit-lamp, lissamine green staining). Conditions: chronically treated mice. It counts as in vivo. The procedure:
(§1) To assess corneal epithelial disruption, 5 μL of lissamine green (LG) dye (1%) was applied to the ocular surface of isofluorane-anesthetized mice. Photographs of the eye were taken using a Nikon Digital camera adapted to an Olympus Zoom Stereo Microscope (Olympus, Center Valley, Pa., USA). Each corneal quadrant was scored on a 3-point scale by one blinded, trained observer, with the extent of staining in each quadrant classified as: 0, no staining; 1, sporadic (involving <25% of the total surface) staining; grade 2, diffuse punctate staining (25-75%); and grade 3, coalesced punctate staining (>75%). The total grade is reported as the sum of scores from all four quadrants, ranging from 0 to 12.
as §1, with “Lissamine green staining. To” for “To”, “(≥75%).” for “(>75%).”

The subject of a further data set is loperamide-treated mice. As to the kind of experiment: Loperamide-induced mouse model of constipation. Conditions: for ED50: Mus musculus.

Entries after “also recorded” stand apart in the source; their conditions may differ. Like-named read-outs stand apart in the source and are kept apart here.

Take `Nc1ccc([N+](=O)[O-])cc1-c1nc2ccccc2n(Cc2ccccc2)c1=O` [CFTRact-J027, 3-(2-amino-5-nitrophenyl)-1-benzylquinoxalin-2(1H)-one]: the “intestinal fluid accumulation compared to equal doses of lubiprostone or linaclotide” value in data set [1] (100 μg per loop) is on record as “Significantly greater intestinal fluid accumulation”. In data set [1] (cystic fibrosis mice), the “loop fluid secretion in cystic fibrosis mice” value is listed as “without effect”. Moreover, the “LG staining of cornea and conjunctiva” value in data set [2] is “no corneal or conjunctival epithelial disruption”. Moreover, the “ocular toxicity (slit-lamp evaluation)” value in data set [2] (topical three times daily, two weeks) is given as “no signs of ocular toxicity”. In addition, in the data set on loperamide-treated mice (10 mg/kg ip, loperamide-treated mice, 3 h stool), the “stool weight, pellet number and water content” value is recorded as “normalized each of the stool parameters”. In addition, in the data set with loperamide-treated mice (10 mg/kg oral 1 h prior to loperamide), the “stool output and water content, oral” value was “normalized stool output and water content; also recorded: effective in normalizing stool output and water content”. For the same molecule, in the data set on loperamide-treated mice (10 mg/kg oral for 7 days, loperamide 1 h after final dose), the “stool output and water content after chronic administration” value is “remained effective in normalizing stool output and water content”. Further, the “stool output in control mice, oral” value in the data set on loperamide-treated mice (10 mg/kg oral, control mice) was “no effect in control mice”. The ED50 with loperamide-treated mice (ip, read-out: ED50, ip administration, loperamide model, ip) is 2 mg/kg; in the data set with loperamide-treated mice (po, read-out: ED50, oral administration, loperamide model, oral 1 h before loperamide), about 0.5 mg/kg. Also, the “effect on stool parameters in cystic fibrosis mice” value in the data set with loperamide-treated mice (cystic fibrosis mice lacking functional CFTR) is recorded as “without effect”. In addition, the “stool output and water content in control mice” value in the data set with loperamide-treated mice (ip, non-loperamide-treated mice) was “did not affect stool output or water content”. Also, the duration of effect in the data set on loperamide-treated mice (mice) was in the range of 3 to 4 h.

Values taken from patent US11084795B2, “CFTR regulators and methods of use thereof” (The Regents of the University of California, priority 2015, dated 2021).
